Experimental data: US7588885B2, “Use of biocistronic DNA constructs for identifying compounds that inhibit IRES-dependent translation” (Chung Yuan Christian University, priority 2004, dated 2009)
≈ marks a conversion by molar mass, not a printed value.

Tests used:
[1] = tested on: IRES of EV71; experiment: cells; type: cell-based; conditions: for selective inhibition on IRES-dependent translation without affecting CAP-dependent translation (screening, FIG. 2): Cos-1 cells transfected with EV-71 IRES construct, amantadine 0.1 mg/ml, IFN-α 10 units, stavudine 0.05 mg/ml, 12 hrs
Method: (§1) Plasmid PGS-EMCV is constructed by inserting into the plasmid pTriEx-4 (obtained from Novagene) template sequences of two reporter genes (cistrons), i.e., β-galactosidase (β-gal), and secreted human placental alkaline phosphatase (SEAP), with a promoter upstream of the first cistron (i.e., β-gal) and an EMCV-IRES sequence downstream of it, between the first cistron and the second cistron (i.e., SEAP). Plasmid pGS-EV71 and pGS-HCV are prepared in similar manner except an EV71-IRES sequence or a HCV-IRES sequence was used to replace the EMCV-IRES sequence.
(§2) The kidney cells from African green monkey, i.e., Cos-1 cells, were transfected with the bicistronic DNA constructs prepared according to Example 1. The method of transfection is well known in the art. Briefly, a transfecting stock solution was prepared as follows: 1) solution A: 1 μg of the bicistronic DNA constructs of Example 1 was dissolved in serum free culturing medium, with its final volume adjusted to be 50 μl; 2) solution B: 2 μl of lipofectAMINE 2000 (obtained from Invitrogen) was mixed with 50 μl of serum free culturing medium; 3) mixed solution A with solution B. Cos-1 cells (0.5−2×10^5/well, 24 wells) were first incubated with 500 μl of the serum free culturing medium for a period of 20 min, and then 102 μl of the transfecting stock solution prepared above was added. The transfected cells were then return to culture environment (37°C., 5% CO2). After 12 hrs, the culturing medium were replaced by a medium containing fetal bovine serum and antibiotics, the transfected cells were continued to culture for another 12 hrs before used in the following compound screening procedure.
(§3) The candidate compounds prepared according to the methods described above were dissolved in PBS, with stock concentration to be 10 mg/ml. These stock solutions were then diluted to proper ranges according to various screening conditions required.
(§4) Reporter proteins activities, i.e., secreted Human Alkaline Phosphatase (SEAP) and β-galactosidase (β-gal), were measured with BD Great EscApe SEAP Detection kit (Cat. No. K2041-1, available from Clontech) and Luminescent β-gal Detection kit (Cat. No. K2048-1, available from Clontech), respectively, according to the manufacturer's instruction.

[2] = tested on: IRES of HCV; experiment: Bicistronic pGS-HCV reporter assay (IRES of HCV); type: cell-based, HCV (hepatitis C virus); conditions: data not shown
Method: as §1
(§5) The kidney cells from African green monkey, i.e., Cos-1 cells, were transfected with the bicistronic DNA constructs prepared according to Example 1. The method of transfection is well known in the art. […]
as §4

[3] = tested on: IRES of EMCV; experiment: Bicistronic pGS-EMCV reporter assay in Cos-1 cells, SEAP activity (IRES-dependent translation); type: cell-based
Method: as §1, §2
as §3, with “required. […] Then, the identified tested compound can be used in preparation of a medicament for treating EV or EMCV infection.” for “required.”
as §4

[4] = tested on: CAP-dependent translation; experiment: Bicistronic pGS-EMCV reporter assay in Cos-1 cells, β-gal activity (CAP-dependent translation); type: cell-based, African green monkey
Method: as §1, §5, §4

[5] = tested on: CAP-dependent translation; experiment: Bicistronic pGS-EV71 reporter assay in Cos-1 cells, β-gal activity (CAP-dependent translation); type: cell-based, African green monkey
Method: as §1, §5, §4

[6] = tested on: EV-71; experiment: EV-71 whole cell antiviral activity; type: cell-based; conditions: Enterovirus A, EV71

| Structure (SMILES) | selective inhibition on IRES-dependent translation without affecting CAP-dependent translation (screening, FIG. 2) [1] | effects on IRES of HCV [2] | IC50 ([3]; Cardiovirus A, COS-1, read-out: calculated IC50 for inhibition of IRES-dependent translation of EMCV) [µg/mL] | inhibition at 250 µg/mL ([3]; Cardiovirus A, COS-1, read-out: inhibition of IRES-dependent translation activity) [%] | gene inhibition (EMCV-IRES mediated gene expression) ([3]; dose of about 0.05 mg/ml (FIG. 5B)) [%] | gene inhibition (EMCV-IRES mediated gene expression) ([3]; dose of about 0.25 mg/ml (FIG. 5B)) [%] | effect on SEAP activities ([3]; pGS-EMCV transfected cells, 0.01 mg/ml to 0.25 mg/ml (FIG. 4B)) | IC50 ([1]; Enterovirus A, EV71, COS-1, read-out: calculated IC50 for inhibition of IRES-dependent translation of EV71) [µg/mL] | inhibition at 250 µg/mL ([1]; Enterovirus A, EV71, COS-1, read-out: inhibition of IRES-dependent translation activity) [%] | gene inhibition (EV71-IRES mediated gene expression) ([1]; dose of about 0.01 mg/ml (FIG. 5A)) [%] | gene inhibition (EV71-IRES mediated gene expression) ([1]; dose of about 0.25 mg/ml (FIG. 5A)) [%] | effect on SEAP activities ([1]; pGS-EV71 transfected cells, 0.01 mg/ml to 0.25 mg/ml (FIG. 3B)) | effect on CAP-dependent translation activity ([4]; 0.25 mg/ml, pGS-EMCV cells (FIG. 4)) | effect on β-gal activities ([4]; pGS-EMCV transfected cells, 0.01 mg/ml to 0.25 mg/ml (FIG. 4A)) | effect on CAP-dependent translation activity ([5]; 0.25 mg/ml, pGS-EV71 cells (FIG. 3)) | effect on β-gal activities ([5]; pGS-EV71 transfected cells, 0.01 mg/ml to 0.25 mg/ml (FIG. 3A)) | IC50 [6] [µg/mL] |
| --- | --- | --- | --- | --- | --- | --- | --- | --- | --- | --- | --- | --- | --- | --- | --- | --- | --- |
| Cc1cn([C@H]2C=C[C@@H](CO)O2)c(=O)[nH]c1=O [stavudine] | only amantadine demonstrates selective inhibition |  |  |  |  |  |  |  |  |  |  |  |  |  |  |  |  |
| NC12CC3CC(CC(C3)C1)C2 [amantadine, 1-Aminoadamantane] | selective inhibition on IRES-dependent translation without affecting CAP-dependent translation | no effects | ~45 (≈ 298 µM) | ~80 | 20 | 80 | inhibits SEAP activities | ~55 (≈ 364 µM) | ~80 | 20 | 80 | inhibits SEAP activities | relatively no effect | little or no effect | relatively no effect | little or no effect | ~8820 (≈ 58300 µM) |
